Measured values reported in US4097597A, “Dibenzo[b,e][1,4]diazepines” (Abbott Laboratories, priority 1977, dated 1978).

How the values were obtained:
[1] = test system: brain level of homovanillic acid (HVA); test: Effect of Drug Compounds on Brain Level of Homovanillic Acid (HVA); type: in vivo, male Long Evans rats; details: ratio to HVA level in control group (1.0); rat brain minus cerebella, 0.15 mmoles/kg i.p. standard dose, 2 or 3 hours; only ratios greater than 1.6 considered of practical significance
Procedure: In testing for the effectiveness of the present drug compounds on the brain level of homovanillic acid (HVA), the drugs were administered intraperitoneally to male Long Evans rats (Simonsen) usually as aqueous solutions but in certain cases as suspensions in 0.5% methocel in 0.9% saline. The standard testing dose was 0.15 mmoles/kg. body weight. The test and control groups consisted of 3-5 and 5 animals, respectively. The analyses were performed on brains (minus cerebella) removed 2 or 3 hours later. In the analysis, standard extraction and fluorimetric methods were used.
In the results, the level of brain HVA in each test group is expressed as a ratio to the level of HVA in an accompanying control group that was injected with either a 0.9% saline or a 0.5% solution of methocel. Even though ratios of […] 1.3 usually have statistical significance, only ratios greater than 1.6 are considered to be of practical significance for the pharmacological classification of drugs.

[2] = test system: Methamphetamine induced hyperactivity; test: Antagonism of Methamphetamine induced hyperactivity in rats; type: in vivo, Male Long-Evans black hooded rats; design: key: (+): potentiation of Methamphetamine; (-): antagonism of Methamphetamine; details: sign printed with oral ED50; rat, oral 5, 20 and 80 mg./kg.
Procedure: Male Long-Evans black hooded rats, weighing between 100 and 150 grams, were administered the test drugs at oral doses of 5, 20 and 80 mg./kg. 1 hour prior to the administration of Methamphetamine at an intraperitoneal dose of 1 mg./kg. Three animals were tested at each dose level. The rats were placed in individual activity chambers equipped with photocells (Lehigh Valley, Model 1497). Antagonism of Methamphetamine induced hyperactivity was recorded as digital counts received from the photocells at one and two hour intervals. Placebo controls received a volume dose of the 0.5 carboxymethylcellulose vehicle. The data were evaluated by a one-way analysis of variance computer program. ED50 's were calculated by the method of Litchfield and Wilcoxon (J. Pharmacol. Exp. Therap.; 96:99, 1949).
In the results, a (+) indicates a potentiation of Methamphetamine and a (-) is antagonism of Methamphetamine.

| Compound | HVA Ratio [1] | direction of effect on Methamphetamine [2] |
| --- | --- | --- |
| OCCOCCN1CCN(C2=Nc3cc(Cl)ccc3Nc3ccccc32)CC1 [VI, 8-Chloro-11-[4-2-(2-hydroxyethoxy)ethyl-1-piperazinyl]-5H-dibenzo[b,e][1,4]diazepine] | 2.8 | (-) |
| CCCCCCCCCCCCCCCC(=O)OCCOCCN1CCN(C2=Nc3cc(Cl)ccc3Nc3ccccc32)CC1 [IX, 8-Chloro-11-[4-2-(2-palmitoyloxyethoxy)-ethylpiperazinyl]-5H-dibenzo[b,e][1,4]diazepine] | 1.0 | (-) |
| OCCOCCOCCN1CCN(C2=Nc3cc(Cl)ccc3Nc3ccccc32)CC1 [VIII, 8-Chloro-11-[4-2-(2-hydroxyethoxyethoxy)-ethylpiperazinyl]-5H-dibenzo[b,e][1,4]diazepine] | 1.4 | (-) |
| CCCCCCCCCCCCCCCC(=O)OCCOCCN1CCN(C2=Nc3cc(Cl)ccc3N(C(=O)CCCCCCCCCCCCCCC)c3ccccc32)CC1 [X, 8-Chloro-11-[4-2-(2-palmitoyloxyethoxy)-ethylpiperazinyl]-5-palmitoyl-dibenzo[b,e][1,4]diazepine] | – | (-) |
| COCCOCCN1CCN(C2=Nc3cc(Cl)ccc3Nc3ccccc32)CC1 [VII, 8-Chloro-11[4-2-(2-methoxyethoxy)-ethylpiperazine]-5H-dibenzo[b,e][1,4]diazepine] | 3.1 | (-) |
